Assay results taken from ChEMBL document CHEMBL6087412, “Discovery of cloxiquine derivatives as potent HDAC inhibitors for the treatment of melanoma via activating PPARγ” (Eur J Med Chem, 2025).
pIC50: −log10 of the molar value. Active and inactive are the calls of the source. The rule behind the calls is not given here.

Columns and labels:
[1] = system: SK-MEL-5; test: Induction of apoptosis in human SK-MEL-5 cells assessed as early apoptotic cells at 0.2 uM incubated for 48 hrs by Annexin V-APC/7-AAD staining based flow cytometric analysis (reference value: 2.29 %); assay type: functional
[2] = target: Histone deacetylase 4 (Homo sapiens, UniProt P56524); test: Inhibition of HDAC4 (unknown origin) using Ac-Leu-Gly-Lys(Tfa)-AMC as substrate by spectramax microplate reader analysis
Chain of Histone deacetylase 4 (P56524 whole entry): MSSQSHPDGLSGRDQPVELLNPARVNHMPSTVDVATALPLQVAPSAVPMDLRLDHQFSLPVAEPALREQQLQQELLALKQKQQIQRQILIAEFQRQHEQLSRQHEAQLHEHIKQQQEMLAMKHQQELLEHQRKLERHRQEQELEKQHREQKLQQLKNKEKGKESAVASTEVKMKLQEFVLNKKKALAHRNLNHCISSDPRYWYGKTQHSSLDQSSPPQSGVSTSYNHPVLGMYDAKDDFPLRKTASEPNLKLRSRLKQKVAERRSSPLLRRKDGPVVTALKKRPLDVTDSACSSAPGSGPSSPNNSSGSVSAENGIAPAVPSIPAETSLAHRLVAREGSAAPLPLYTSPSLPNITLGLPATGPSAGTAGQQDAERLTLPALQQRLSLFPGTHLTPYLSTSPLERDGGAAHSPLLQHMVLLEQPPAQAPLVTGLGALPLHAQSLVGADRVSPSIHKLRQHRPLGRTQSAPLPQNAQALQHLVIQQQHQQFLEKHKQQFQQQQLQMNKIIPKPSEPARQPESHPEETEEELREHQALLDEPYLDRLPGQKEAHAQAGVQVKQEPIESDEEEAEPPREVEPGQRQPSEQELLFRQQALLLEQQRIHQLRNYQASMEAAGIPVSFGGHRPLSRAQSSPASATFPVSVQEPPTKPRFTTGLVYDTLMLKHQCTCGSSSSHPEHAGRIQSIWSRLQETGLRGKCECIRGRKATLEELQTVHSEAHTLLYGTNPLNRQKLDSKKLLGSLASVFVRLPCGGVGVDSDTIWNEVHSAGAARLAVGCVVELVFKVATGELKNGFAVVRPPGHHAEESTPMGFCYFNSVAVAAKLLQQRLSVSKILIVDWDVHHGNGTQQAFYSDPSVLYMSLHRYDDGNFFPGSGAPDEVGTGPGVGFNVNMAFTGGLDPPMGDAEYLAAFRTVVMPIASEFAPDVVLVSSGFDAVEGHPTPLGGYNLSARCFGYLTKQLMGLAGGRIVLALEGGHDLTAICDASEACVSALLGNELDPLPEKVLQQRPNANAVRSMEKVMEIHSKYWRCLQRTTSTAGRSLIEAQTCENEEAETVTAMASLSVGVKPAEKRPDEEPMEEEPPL

[3] = system: SK-MEL-5; test: Antiproliferative activity against human SK-MEL-5 cells assessed as upregulation of PPARgamma expression incubated for 48 hrs by Western blotting analysis; assay type: functional, cell-based
[4] = system: SK-MEL-5; test: Antiproliferative activity against human SK-MEL-5 cells assessed as inhibition of cell growth incubated for 72 hrs in presence of GW9662 by MTT assay; assay type: functional, cell-based
[5] = system: SK-MEL-5; test: Inhibition of glycolysis in human SK-MEL-5 cells assessed as reduction in lactate production at 2 uM incubated for 48 hrs in presence of GW9662 by chekineTM micro lactate Assay; assay type: functional, cell-based
[6] = system: SK-MEL-5; test: Induction of cell cycle arrest in human SK-MEL-5 cells assessed as accumulation of cells at G0/G1 phase at 0.2 uM incubated for 48 hrs by propidium iodide staining based flow cytometry (reference value: 66.27 %); assay type: functional
[7] = system: SK-MEL-5; test: Induction of cell cycle arrest in human SK-MEL-5 cells assessed as accumulation of cells at G0/G1 phase at 1 uM incubated for 48 hrs by propidium iodide staining based flow cytometry (reference value: 66.27 %); assay type: functional
[8] = system: SK-MEL-5; test: Induction of cell cycle arrest in human SK-MEL-5 cells assessed as accumulation of cells at G0/G1 phase at 5 uM incubated for 48 hrs by propidium iodide staining based flow cytometry (reference value: 66.27 %); assay type: functional
[9] = system: SK-MEL-5; test: Induction of cell cycle arrest in human SK-MEL-5 cells assessed as accumulation of cells at G2/M phase at 0.2 uM incubated for 48 hrs by propidium iodide staining based flow cytometry (reference value: 8.36 %); assay type: functional
[10] = system: SK-MEL-5; test: Induction of cell cycle arrest in human SK-MEL-5 cells assessed as accumulation of cells at G2/M phase at 1 uM incubated for 48 hrs by propidium iodide staining based flow cytometry (reference value: 8.36 %); assay type: functional
[11] = system: SK-MEL-5; test: Induction of cell cycle arrest in human SK-MEL-5 cells assessed as accumulation of cells at G2/M phase at 5 uM incubated for 48 hrs by propidium iodide staining based flow cytometry (reference value: 8.36 %); assay type: functional
[12] = system: SK-MEL-5; test: Induction of cell cycle arrest in human SK-MEL-5 cells assessed as accumulation of cells at S phase at 0.2 uM incubated for 48 hrs by propidium iodide staining based flow cytometry (reference value: 25.36 %); assay type: functional
[13] = system: SK-MEL-5; test: Induction of cell cycle arrest in human SK-MEL-5 cells assessed as accumulation of cells at S phase at 1 uM incubated for 48 hrs by propidium iodide staining based flow cytometry (reference value: 25.36 %); assay type: functional
[14] = system: SK-MEL-5; test: Induction of cell cycle arrest in human SK-MEL-5 cells assessed as accumulation of cells at S phase at 5 uM incubated for 48 hrs by propidium iodide staining based flow cytometry (reference value: 25.36 %); assay type: functional
[15] = system: SK-MEL-5; test: Induction of apoptosis in human SK-MEL-5 cells assessed as viable cells at 0.2 uM incubated for 48 hrs by Annexin V-APC/7-AAD staining based flow cytometric analysis (reference value: 95.77 %); assay type: functional; details: read-out: Activity
[16] = system: SK-MEL-5; test: Induction of apoptosis in human SK-MEL-5 cells assessed as late apoptotic cells at 0.2 uM incubated for 48 hrs by Annexin V-APC/7-AAD staining based flow cytometric analysis (reference value: 0.9 %); assay type: functional
[17] = system: SK-MEL-5; test: Induction of apoptosis in human SK-MEL-5 cells assessed as necrotic cells at 0.2 uM incubated for 48 hrs by Annexin V-APC/7-AAD staining based flow cytometric analysis (reference value: 1.05 %); assay type: functional
[18] = system: SK-MEL-5; test: Induction of apoptosis in human SK-MEL-5 cells assessed as viable cells at 1 uM incubated for 48 hrs by Annexin V-APC/7-AAD staining based flow cytometric analysis (reference value: 95.77 %); assay type: functional; details: read-out: Activity
[19] = system: SK-MEL-5; test: Induction of apoptosis in human SK-MEL-5 cells assessed as early apoptotic cells at 1 uM incubated for 48 hrs by Annexin V-APC/7-AAD staining based flow cytometric analysis (reference value: 2.29 %); assay type: functional
[20] = system: SK-MEL-5; test: Induction of apoptosis in human SK-MEL-5 cells assessed as late apoptotic cells at 1 uM incubated for 48 hrs by Annexin V-APC/7-AAD staining based flow cytometric analysis (reference value: 0.9 %); assay type: functional
[21] = system: SK-MEL-5; test: Induction of apoptosis in human SK-MEL-5 cells assessed as necrotic cells at 1 uM incubated for 48 hrs by Annexin V-APC/7-AAD staining based flow cytometric analysis (reference value: 1.05 %); assay type: functional
[22] = system: SK-MEL-5; test: Induction of apoptosis in human SK-MEL-5 cells assessed as viable cells at 5 uM incubated for 48 hrs by Annexin V-APC/7-AAD staining based flow cytometric analysis (reference value: 95.77 %); assay type: functional; details: for viability at 5 µM: Homo sapiens, SK-MEL-5, read-out: Activity
[23] = system: SK-MEL-5; test: Induction of apoptosis in human SK-MEL-5 cells assessed as early apoptotic cells at 5 uM incubated for 48 hrs by Annexin V-APC/7-AAD staining based flow cytometric analysis (reference value: 2.29 %); assay type: functional
[24] = system: SK-MEL-5; test: Induction of apoptosis in human SK-MEL-5 cells assessed as late apoptotic cells at 5 uM incubated for 48 hrs by Annexin V-APC/7-AAD staining based flow cytometric analysis (reference value: 0.9 %); assay type: functional
[25] = system: SK-MEL-5; test: Induction of apoptosis in human SK-MEL-5 cells assessed as necrotic cells at 5 uM incubated for 48 hrs by Annexin V-APC/7-AAD staining based flow cytometric analysis (reference value: 1.05 %); assay type: functional
[26] = system: SK-MEL-5; test: Inhibition of cell migration in human SK-MEL-5 cells incubated for 24 hrs by scratch assay; assay type: functional, cell-based
[27] = system: SK-MEL-5; test: Inhibition of cell invasion in human SK-MEL-5 cells at 0.2 to 5 uM incubated for 48 hrs by transwell assay; assay type: functional, cell-based; details: dose 0.2-5 µM
[28] = system: SK-MEL-5; test: Antitumor activity against human SK-MEL-5 cells xenografted with BALB/c mouse assessed as tumor growth inhibition at 30 mg/kg,ip administrated for 21 consecutive days; assay type: functional; details: read-out: TGI
[29] = Toxicity in BALB/c mouse xenografted with human SK-MEL-5 cells assessed as body weight loss at 30 mg/kg,ip administrated for 21 consecutive days; assay type: organism-based; details: in vivo
[30] = system: A-375; test: cells; details: Homo sapiens, A-375, 72 h
Description: Antiproliferative activity against human A-375 cells assessed as inhibition of cell growth incubated for 72 hrs by MTT assay

[31] = system: SK-MEL-5; test: cells; details: Homo sapiens, SK-MEL-5, 72 h
Description: Antiproliferative activity against human SK-MEL-5 cells assessed as inhibition of cell growth incubated for 72 hrs by MTT assay

[32] = in vitro; details: human, MRC5 cells
Description: Antiproliferative activity against human MRC5 cells assessed as inhibition of cell growth incubated for 72 hrs by MTT assay

O=C(CCCCCCOc1cccc2cccnc12)NO
Activity [1]: 3.68%
pIC50 [2]: 4.71
Activity [3]: Dose-dependent-effect
Activity [4]: inactive
inhibition [5]: inactive
Activity [6]: 64.96%
Activity [7]: 59.45%
Activity [8]: 50.23%
Activity [9]: 11.27%
Activity [10]: 16%
Activity [11]: 22.01%
Activity [12]: 23.77%
Activity [13]: 24.55%
Activity [14]: 27.75%
viability at 0.2 µM [15]: 92.7%
Activity [16]: 2.81%
Activity [17]: 0.85%
viability at 1 µM [18]: 77.8%
Activity [19]: 9.75%
Activity [20]: 8.03%
Activity [21]: 4.41%
viability at 5 µM [22]: 49.9%
Activity [23]: 35.15%
Activity [24]: 12.52%
Activity [25]: 2.39%
inhibition [26]: Dose-dependent-effect
inhibition [27]: Active
inhibition in vivo at 30 mg/kg [28]: 50.2%
Activity [29]: Non-toxic
pIC50 [30]: 5.92
pIC50 [31]: 6.03
IC50 at 72 h [32]: 3.64 µM

O=C(NO)c1cccc(COc2ccc(Cl)c3cccnc23)c1
pIC50 [30]: 4.53
pIC50 [31]: 4.62
IC50 at 72 h [32]: > 50 µM

O=C(NO)c1ccc(COc2cccc3cccnc23)cc1
pIC50 [30]: 4.82
pIC50 [31]: 4.82
IC50 at 72 h [32]: 18.4 µM

O=C(NO)c1ccc(CCOc2cccc3cccnc23)cc1
pIC50 [30]: 4.88
pIC50 [31]: 4.86
IC50 at 72 h [32]: 29 µM

O=C(CCCCCCOc1ccc(Cl)c2cccnc12)NO
pIC50 [30]: 5.43
pIC50 [31]: 5.46
IC50 at 72 h [32]: 8.07 µM

O=C(CCCCCOc1cccc2cccnc12)NO
pIC50 [30]: 4.86
pIC50 [31]: 4.90
IC50 at 72 h [32]: 28.1 µM

O=C(NO)c1ccccc1COc1cccc2cccnc12
pIC50 [30]: < 4.30
pIC50 [31]: 4.33
IC50 at 72 h [32]: > 50 µM

Oc1ccc(Cl)c2cccnc12 [CLOXYQUIN]
Activity [8]: 58.85%
Activity [11]: 13.48%
Activity [14]: 27.67%
viability at 5 µM [22]: 85.1%
Activity [23]: 6.96%
Activity [24]: 4.88%
Activity [25]: 3.08%
inhibition in vivo at 30 mg/kg [28]: 24.3%
pIC50 [30]: 5.22
pIC50 [31]: 5.30
IC50 at 72 h [32]: 20.4 µM

O=C(CCCOc1ccc(Cl)c2cccnc12)NO
pIC50 [30]: 5.18
pIC50 [31]: 5.20
IC50 at 72 h [32]: 19.5 µM

O=C(CCCCOc1ccc(Cl)c2cccnc12)NO
pIC50 [30]: 4.65
pIC50 [31]: 4.67
IC50 at 72 h [32]: > 50 µM

O=C(NO)c1ccc(CCOc2ccc(Cl)c3cccnc23)cc1
pIC50 [30]: 4.93
pIC50 [31]: 4.97
IC50 at 72 h [32]: 23.3 µM

O=C(CCCCOc1cccc2cccnc12)NO
pIC50 [30]: < 4.30
pIC50 [31]: < 4.30
IC50 at 72 h [32]: > 50 µM

O=C(CCc1ccc(COc2ccc(Cl)c3cccnc23)cc1)NO
pIC50 [30]: 4.64
pIC50 [31]: 4.76
IC50 at 72 h [32]: > 50 µM

O=C(CCCOc1cccc2cccnc12)NO
pIC50 [30]: 4.48
pIC50 [31]: 4.53
IC50 at 72 h [32]: > 50 µM

O=C(CCCCCOc1ccc(Cl)c2cccnc12)NO
pIC50 [30]: 4.82
pIC50 [31]: 4.86
IC50 at 72 h [32]: 42.1 µM

O=C(/C=C/c1ccc(COc2ccc(Cl)c3cccnc23)cc1)NO
pIC50 [30]: 5.46
pIC50 [31]: 5.43
IC50 at 72 h [32]: 6.94 µM

O=C(NO)c1ccccc1COc1ccc(Cl)c2cccnc12
pIC50 [30]: 5.01
pIC50 [31]: 5.07
IC50 at 72 h [32]: 21.3 µM

O=C(NO)c1cccc(COc2cccc3cccnc23)c1
pIC50 [30]: < 4.30
pIC50 [31]: 4.38
IC50 at 72 h [32]: > 50 µM

O=C(Cc1ccc(COc2cccc3cccnc23)cc1)NO
pIC50 [30]: < 4.30
pIC50 [31]: < 4.30
IC50 at 72 h [32]: > 50 µM

O=C(NO)c1ccc(COc2ccc(Cl)c3cccnc23)cc1
pIC50 [30]: < 4.30
pIC50 [31]: < 4.30
IC50 at 72 h [32]: > 50 µM

O=C(/C=C/c1ccc(COc2cccc3cccnc23)cc1)NO
pIC50 [30]: 5.43
pIC50 [31]: 5.44
IC50 at 72 h [32]: 7.34 µM

O=C(CCCCCCC(=O)Nc1ccccc1)NO [VORINOSTAT]
Activity [8]: 55.91%
Activity [11]: 19.87%
Activity [14]: 24.22%
Activity [22]: 57.12%
Activity [23]: 32.5%
Activity [24]: 7.99%
Activity [25]: 2.39%
pIC50 [31]: 5.67
